Source: patent US10167299B2, “1-(3-aminopropyl) substituted cyclic amine compounds, preparation method therefor, and pharmaceutical compositions and uses thereof” (SHANGHAI INSTITUTE OF MATERIA MEDICA, CHINESE ACADEMY OF …, priority 2013, dated 2019)
In brackets after ≈: the same amount, converted by molar mass. Read-outs that look alike come from different tables or passages of the source.

Legend:
[1] = Cytotoxicity (CC50) in TZM-bl cells; type: cell-based; conditions: human; TZM-bl cells (Table 3); read-out: CC50
HIV-1SF162 virus strain [2] = experiment: Inhibition of viral replication in PBMC infected with HIV-1SF162; type: cell-based
Procedure: (§1) The virus was titrated according to the modified method of Johnson & Byington. Briefly, the HIV-1 stock solution was subject to four-fold dilution in a 96-well plate (ten gradients) sextuplicate for each gradient, while setting six control-wells. Into each well was added 100 μl (5×10^6/ml) PHA-stimulated PBMC cells and final volume per well was 200 μl. The cells were cultured at 37° C. with 5% CO2. […] On the seventh day, the infected supernatant was collected and lysed with 0.5% Triton X100. The p24 antigen was detected by ELISA and TCID50 of virus was calculated according to Reed & Muench method (50% Tissue culture infection dose).
(§2) The starting concentration was 1 μM, six dilutions were obtained, and each well contained 200 μl mixture. While wells not containing drugs were set as control. […] After homogeneously mixed, the mixture was immediately added to 48-well plate containing diluted drug and each well was added with 200 μl of mixture. MVC was used as positive control. The cells were cultured at 37° C. with 5% CO2 for seven days (drug with the same concentration was added on the third day). The supernatant was collected, lysed and inactivated with 0.5% Triton X-100. The inhibition effect of drug on HIV-1 replication was detected using p24 antigen capture ELISA method.

HIV-1KM018 virus strain = experiment: Inhibition of viral replication in PBMC infected with HIV-1KM018; type: cell-based
Procedure: as §1, §2

HIV-1Ba-L virus strain [3] = experiment: Inhibition of viral replication in PBMC infected with HIV-1Ba-L; type: cell-based
Procedure: The virus was titrated according to the modified method of Johnson & Byington. Briefly, the HIV-1 stock solution was subject to four-fold dilution in a 96-well plate (ten gradients) sextuplicate for each gradient, while setting six control-wells. Into each well was added 100 μl (5×10^6/ml) PHA-stimulated PBMC cells and final volume per well was 200 μl. The cells were cultured at 37° C. with 5% CO2. On the third day, 100 μl of fresh RPMI-1640 complete medium was supplemented. On the seventh day, the infected supernatant was collected and lysed with 0.5% Triton X100. The p24 antigen was detected by ELISA and TCID50 of virus was calculated according to Reed & Muench method (50% Tissue culture infection dose).
The compound to be tested was subject to 5-fold dilution in 48-well plate with RPMI-1640 complete medium (containing 10% FBS). The starting concentration was 1 μM, six dilutions were obtained, and each well contained 200 μl mixture. While wells not containing drugs were set as control. Virus (MOI=0.01) was added to 5×10^6/ml of PBMC cells which have been stimulated by PHA for 72 h. After homogeneously mixed, the mixture was immediately added to 48-well plate containing diluted drug and each well was added with 200 μl of mixture. MVC was used as positive control. The cells were cultured at 37° C. with 5% CO2 for seven days (drug with the same concentration was added on the third day). The supernatant was collected, lysed and inactivated with 0.5% Triton X-100. The inhibition effect of drug on HIV-1 replication was detected using p24 antigen capture ELISA method.

[4] = Toxicity test of compounds on PBMC cells (MTT); type: cell-based; conditions: human, PBMC cells (Table 4)
Procedure: (§3) The compound to be tested was subject to 5-fold dilution in a 96-well microtiter plate with RPMI-1640 or DMEM complete medium (containing 10% FBS) (Six dilution) triplicate for each dilution and 100 μl for each well. While wells not containing drugs were set as control. Into each well was added 100 μl of 4×10^5/ml PM1, HOS-CD4-CCR5 cells or 100 μl of 5×10^6/ml PHA stimulated PBMC. The cells were cultured at 37° C. with 5% CO2 for three days (PBMC cells were cultured for seven days and 100 μl of fresh RPMI-1640 complete medium was supplemented on the third day). Cytotoxicity was tested with MTT assay. OD values were measured by ELx800 microplate reader. The detection wavelength was 570 nm, and the reference wavelength was 630 nm.

HIV-1Ba-L virus strain [5] = experiment: Inhibition of viral replication in HOS-CD4-CCR5 cells infected with HIV-1Ba-L; type: cell-based
Procedure: (§4) On the day before the test, 1×10^5/ml of HOS-CD4-CCR5 cells were inoculated in 96-well plates with 100 μl for each well. The compound to be tested was subject to 5-fold dilution in 96-well microtiter plate with DMEM complete medium (containing 10% FBS). The starting concentration was 1 μM and six dilutions were obtained. Triplicate wells were set for each dilution and each well contained 100 μl mixture. While wells not containing drugs were set as control. The supernatant was removed and 100 μl of drug was added and incubated for 2 h. Then 100 μl of HIV-1SF162 and HIV-1Ba-L were added to dilute supernatant. The cells were infected for 1 h, free virus was washed out and drug with the same final concentration was added. MVC was used as positive control. The cells were cultured at 37° C. with 5% CO2 for three days. The supernatant was collected, lysed and inactivated with 0.5% Triton X-100. The inhibition effect of drug on HIV-1 replication was detected using p24 antigen capture ELISA method.

HIV-1SF162 virus strain [6] = experiment: Inhibition of viral replication in HOS-CD4-CCR5 cells infected with HIV-1SF162; type: cell-based
Procedure: as §4

[7] = Toxicity test of compounds on HOS-CD4-CCR5 cells (MTT); type: cell-based; conditions: human; HOS-CD4+-CCR5 cells (Table 7)
Procedure: as §3

CYP1A2 = CYP1A2 (Homo sapiens (Human), UniProt P05177); experiment: CYP450 inhibition activity assay (Vivid kit) CYP1A2; type: in vitro ADME; conditions: CYP450 subtype (μM) 1A2 (IC50)
Procedure: VividR CYP450 Screening Kits can be used to evaluate the effects on CYP450 subtypes (CYP1A2, CYP2D6, CYP2C9, CYP2C19, CYP3A4-T and CYP3A4-M) and the substrate VividR in the kit can be metabolizd to a product which can emit strong fluorescence in an aqueous solution by specific CYP450 enzymes.
The compounds to be tested and positive compound were added to corresponding wells and DMSO was added to control wells.
CYP450 enzyme was added to the compounds to be tested, positive compound and DMSO control wells. The enzyme dilution was used to replace enzyme and added to DMSO wells as test background. The mixture was vibrated and mixed for 1 minute, and then incubated at room temperature for 20 minutes.
NADP^+ regeneration system and the substrate were added to initiate the reaction and incubated at room temperature for 60 minutes.

in vivo = conditions: male, rat
HIV-1SF162 virus strain [8] = experiment: Inhibition activity on TZM-bl cells infected with HIV-1SF162; conditions: for EC50: Human immunodeficiency virus 1, TZM-bl; for therapeutic index (TI): TZM-bl cells infected with HIV-1SF162; for cytotoxicity in vitro and therapeutic index in words, versus positive control compound: TZM-bl cells infected with HIV-1SF162, conclusion from Table 3
[9] = Human immunodeficiency virus 1, PBMC
[10] = Human immunodeficiency virus 1, HOS-CD4-CCR5

CYP1A2, sequence (P05177 whole entry): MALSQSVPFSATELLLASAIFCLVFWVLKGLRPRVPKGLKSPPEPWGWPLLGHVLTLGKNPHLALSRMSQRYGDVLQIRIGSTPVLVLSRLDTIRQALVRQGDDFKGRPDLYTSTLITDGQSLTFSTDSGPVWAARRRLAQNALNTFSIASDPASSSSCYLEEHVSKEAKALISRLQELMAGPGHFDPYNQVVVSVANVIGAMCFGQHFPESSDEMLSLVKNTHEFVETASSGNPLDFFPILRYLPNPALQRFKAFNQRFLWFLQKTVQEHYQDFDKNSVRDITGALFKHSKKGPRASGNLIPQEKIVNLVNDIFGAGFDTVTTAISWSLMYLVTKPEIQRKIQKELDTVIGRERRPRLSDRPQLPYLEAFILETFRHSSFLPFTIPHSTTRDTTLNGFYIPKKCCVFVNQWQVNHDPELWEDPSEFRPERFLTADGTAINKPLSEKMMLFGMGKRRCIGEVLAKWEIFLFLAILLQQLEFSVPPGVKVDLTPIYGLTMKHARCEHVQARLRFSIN

Compound	CC50 [1]	CC50 at 3 days [7]	bioavailability (in vivo)	AUC(0-t) (in vivo; 10 mg/kg)	AUC(0-inf) (in vivo; iv, 10 mg/kg)	AUC(0-t) (in vivo; iv, 10 mg/kg)	Cmax (in vivo; iv, 10 mg/kg)	MRT (in vivo; iv, 10 mg/kg)	Tmax (in vivo; iv, 10 mg/kg)	half-life (in vivo; iv, 10 mg/kg)	AUC(0-inf) (in vivo; po, 20 mg/kg)	AUC(0-t) (in vivo; po, 20 mg/kg)	Cmax (in vivo; po, 20 mg/kg)	MRT (in vivo; po, 20 mg/kg)	Tmax (in vivo; po, 20 mg/kg)	bioavailability (in vivo; po, 20 mg/kg)	half-life (in vivo; po, 20 mg/kg)	EC50 (HIV-1SF162 virus strain [8])	therapeutic index (TI) (HIV-1SF162 virus strain [8])	cytotoxicity in vitro and therapeutic index in words, versus positive control compound (HIV-1SF162 virus strain [8])	other results
Cc1nnc(C(C)C)n1C1CC2CCC(C1)N2CC[C@H](NC(=O)C1CCC(F)(F)CC1)c1ccsc1 (stereo partly drawn) [Compound 22, 4,4-difluoro-N-[(1S)-3-[exo-3-(3-isopropyl-5-methyl-4H-1,2,4-triazol-4-yl)-8-azabicyclo[3.2.1]octane-8-yl]-1-(thiophen-3-yl)propyl]cyclohexane-1-carboxamide]	> 200000 ng/mL	> 800000 ng/mL	14.5%	4150 ng·h/mL	4160 ng·h/mL	4150 ng·h/mL	3780 ng/mL	0.84 h	0.25 h	1 h	1260 ng·h/mL	1210 ng·h/mL	306 ng/mL	2.55 h	2 h	14.5%	1.55 h	1.53 ng/mL (≈ 0.00294 µM)	>130718.95	better than positive control compound	EC50 (HIV-1SF162 virus strain [2]; [9]): 2.65 ng/mL (≈ 0.0051 µM); EC50 (HIV-1KM018 virus strain; [9]): 5.33 ng/mL (≈ 0.0103 µM); EC50 (HIV-1Ba-L virus strain [3]; [9]): 5.13 ng/mL (≈ 0.00987 µM); CC50 at 7 days [4]: 635000 ng/mL (≈ 1220 µM); EC50 (HIV-1Ba-L virus strain [5]; [10]): 4.83 ng/mL (≈ 0.00929 µM); EC50 (HIV-1SF162 virus strain [6]; [10]): 9.15 ng/mL (≈ 0.0176 µM); IC50 (CYP1A2): > 25 µM
Cc1nnc(C(C)C)n1C1CC2CCC(C1)N2CC[C@H](NC(=O)C1CCC(F)(F)CC1)c1cccs1 (stereo partly drawn) [Compound 14, 4,4-difluoro-N-[(1S)-3-[exo-3-(3-isopropyl-5-methyl-4H-1,2,4-triazol-4-yl)-8-azabicyclo[3.2.1]octane-8-yl]-1-(thiophen-2-yl)propyl]cyclohexane-1-carboxamide]	> 200000 ng/mL	370000 ng/mL (≈ 711 µM)	7.85%	7050 ng·h/mL	7060 ng·h/mL	7050 ng·h/mL	6840 ng/mL	0.71 h	0.25 h	0.77 h	1190 ng·h/mL	1110 ng·h/mL	266 ng/mL	3.33 h	4 h	7.85%	2.12 h	3.59 ng/mL (≈ 0.00691 µM)	>55710.31	better than positive control compound	EC50 (HIV-1SF162 virus strain [2]; Human immunodeficiency virus 1, PBMC cells infected with HIV-1SF162, read-out: EC50): 1.58 ng/mL (≈ 0.00304 µM); EC50 (HIV-1KM018 virus strain; Human immunodeficiency virus 1, PBMC cells infected with HIV-1KM018, read-out: EC50): 3.77 ng/mL (≈ 0.00725 µM); EC50 (HIV-1Ba-L virus strain [3]; Human immunodeficiency virus 1, PBMC cells infected with HIV-1Ba-L, read-out: EC50): 19.7 ng/mL (≈ 0.0379 µM); CC50 at 7 days ([4]; PHA stimulated PBMC): 268000 ng/mL (≈ 515 µM); EC50 (HIV-1Ba-L virus strain [5]; Human immunodeficiency virus 1, HOS-CD4+-CCR5 cells infected with HIV-1Ba-L, read-out: EC50): 0.74 ng/mL (≈ 0.00142 µM); EC50 (HIV-1SF162 virus strain [6]; Human immunodeficiency virus 1, HOS-CD4+-CCR5 cells infected with HIV-1SF162, read-out: EC50): 13.1 ng/mL (≈ 0.0251 µM)
